Results taken from patent US9120749B2, “Quinoline derivatives and MELK inhibitors containing the same” (ONCOTHERAPY SCIENCE, INC., priority 2010, dated 2015).
Counter-ions that a name gives are not always drawn. Like-named read-outs stand apart in the source and are kept apart here.

What was measured:
MELK = MELK (Homo sapiens, UniProt Q14680); assay: Kinase assay: MELK activity, phosphorylation of FITC-labeled histone H3 peptide measured by IMAP fluorescence polarization; format: biochemical
Outline: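 Compounds, serially diluted from 12.5 mM DMSO stocks to 1% final DMSO, were tested with FITC-labeled histone H3 peptide as substrate. The reaction was stopped with progressive binding solution. Fluorescence polarization was read after 0.5 hour at room temperature.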

T47D cells = assay: Cell-based assay: anti-proliferative activity, Cell Counting Kit-8, 72 hours (T47D)
Outline: (§1)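 Anti-MELK western blot on crude lysates → MELK status per line. Cells plated 96-well, compound exposure, CCK-8 readout at 72 h; IC50 calculated.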

A549 cells = assay: Cell-based assay: anti-proliferative activity, Cell Counting Kit-8, 72 hours (A549); conditions: 72 hours
Outline: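 Cell Counting Kit-8 read-out of A549 growth after 72 hours of inhibitor exposure, cells plated in 96-well format. Values reported as IC50.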

HT-1197 cells = assay: Cell-based assay: anti-proliferative activity, Cell Counting Kit-8, 72 hours (HT-1197, negative control without MELK expression); conditions: HT1197 cells (negative control), 72 hours
Outline: as §1

DU4475 cells = assay: Cell-based assay: anti-proliferative activity, Cell Counting Kit-8, 72 hours (DU4475)
[1] = read-out: IC50 (μM) (kinase assay)

Sequence of MELK (Q14680 whole entry, looked up): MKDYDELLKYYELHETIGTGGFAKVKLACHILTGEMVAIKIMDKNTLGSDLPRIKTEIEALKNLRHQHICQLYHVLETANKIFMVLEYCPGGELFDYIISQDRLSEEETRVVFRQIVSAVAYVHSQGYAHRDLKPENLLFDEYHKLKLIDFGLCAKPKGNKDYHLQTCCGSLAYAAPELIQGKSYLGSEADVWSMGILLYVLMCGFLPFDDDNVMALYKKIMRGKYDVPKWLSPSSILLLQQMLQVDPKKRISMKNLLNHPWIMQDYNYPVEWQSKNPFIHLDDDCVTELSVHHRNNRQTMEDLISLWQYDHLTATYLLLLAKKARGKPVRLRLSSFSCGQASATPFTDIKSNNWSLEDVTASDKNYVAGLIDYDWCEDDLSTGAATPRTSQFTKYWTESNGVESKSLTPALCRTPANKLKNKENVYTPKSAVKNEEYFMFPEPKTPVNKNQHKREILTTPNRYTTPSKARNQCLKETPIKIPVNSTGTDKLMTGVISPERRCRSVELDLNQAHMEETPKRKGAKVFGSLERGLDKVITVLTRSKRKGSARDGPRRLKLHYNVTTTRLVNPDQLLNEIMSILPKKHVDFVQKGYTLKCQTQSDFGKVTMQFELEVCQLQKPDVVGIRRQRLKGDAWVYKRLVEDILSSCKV

Compound	IC50 (MELK; [1])	IC50 (T47D cells; Homo sapiens, T47D, 72 h)	IC50 (A549 cells; Homo sapiens, A549, 72 h)	IC50 (HT-1197 cells; Homo sapiens, HT1197, 72 h)	IC50 (DU4475 cells; Homo sapiens, DU-4475, 72 h)	IC50 (MELK)	IC50 (MELK; hydrochloride, read-out: IC50 (μM) (kinase assay))	IC50 (T47D cells; 72 hours, hydrochloride)	IC50 (A549 cells; hydrochloride)	IC50 (HT-1197 cells; hydrochloride)	IC50 (DU4475 cells; hydrochloride)
CC(=O)c1cnc2ccc(-c3cc(F)c(O)c(Cl)c3)cc2c1N[C@H]1CC[C@H](N)CC1 [Example 527, 1-(4-((trans-4-aminocyclohexyl)amino)-6-(3-chloro-5-fluoro-4-hydroxyphenyl)quinolin-3-yl)ethanone]	0.015 µM	0.034 µM	0.42 µM	10 µM	0.02 µM						
COc1cc(-c2ccc3ncc(C(=O)C4CC4)c(N4CCN(C)CC4)c3c2)cc(Cl)c1O [Example 533, (6-(3-chloro-4-hydroxy-5-methoxyphenyl)-4-(4-methylpiperazin-1-yl)quinolin-3-yl)(cyclopropyl)methanone]	0.0088 µM	0.48 µM	0.26 µM	2.6 µM	0.4 µM						
CN[C@H]1CC[C@H](Nc2c(C(=O)C3CC3)cnc3ccc(-c4cc(F)c(O)c(Cl)c4)cc23)CC1 [Example 523, {6-(3-Chloro-5-fluoro-4-hydroxyphenyl)-4-[trans-4-(methylamino)cyclohexylamino]quinolin-3-yl}(cyclopropyl)methanone]	0.0024 µM	0.033 µM	0.19 µM	1.3 µM	0.024 µM						
Nc1ccc(Nc2c(C(=O)C3CC3)cnc3ccc(-c4cc(Cl)c(O)c(Cl)c4)cc23)cn1 [Example 590, (4-(6-aminopyridin-3-ylamino)-6-(3,5-dichloro-4-hydroxyphenyl)quinolin-3-yl)(cyclopropyl)methanone]	0.014 µM	0.48 µM	0.48 µM	2.2 µM	0.19 µM						
COc1cc(-c2ccc3ncc(C(=O)C4CC4)c(Nc4ccc(NC5CCCNC5)nc4)c3c2)cc(Cl)c1O (stereo not shown) [Example 609, (6-(3-chloro-4-hydroxy-5-methoxyphenyl)-4-(6-(piperidin-3-ylamino)pyridin-3-ylamino)quinolin-3-yl)(cyclopropyl)methanone]	0.0025 µM	0.22 µM	0.68 µM	3.9 µM	0.34 µM						
COc1cc(-c2ccc3ncc(C(=O)C4CC4)c(NC4C[C@H]5CC[C@@H](C4)N5)c3c2)cc(Cl)c1O (stereo partly drawn) [Example 579, (4-((1R,3r,5S)-8-azabicyclo[3.2.1]octan-3-ylamino)-6-(3-chloro-4-hydroxy-5-methoxyphenyl)quinolin-3-yl)(cyclopropyl)methanone]	0.0042 µM	0.17 µM	0.27 µM	7.8 µM	0.14 µM						
CN1CCN(c2c(C(=O)C3CC3)cnc3ccc(-c4cc(F)c(O)c(Cl)c4)cc23)CC1 [Example 534, (6-(3-chloro-5-fluoro-4-hydroxyphenyl)-4-(4-methylpiperazin-1-yl)quinolin-3-yl)(cyclopropyl)methanone]	0.025 µM	1.1 µM	1.4 µM	2.8 µM	0.96 µM						
COc1cc(-c2ccc3ncc(C(=O)C4CC4)c(N[C@H]4CC[C@H](CN5CCC(OC)C5)CC4)c3c2)cc(Cl)c1O (stereo partly shown) [Example 599]	0.005 µM	0.51 µM	0.54 µM	2.8 µM	0.37 µM						
NC1CCN(c2ccc(Nc3c(C(=O)C4CC4)cnc4ccc(-c5cc(F)c(O)c(Cl)c5)cc34)cn2)CC1 [Example 557, (4-(6-(4-aminopiperidin-1-yl)pyridin-3-ylamino)-6-(3-chloro-5-fluoro-4-hydroxyphenyl)quinolin-3-yl)(cyclopropyl)methanone]		0.11 µM	0.52 µM	3.1 µM	0.18 µM	0.0056 µM					
COc1cc(-c2ccc3ncc(C(=O)C4CC4)c(Nc4ccc(N5CCNCC5)cn4)c3c2)cc(Cl)c1O [Example 528, (6-(3-chloro-4-hydroxy-5-methoxyphenyl)-4-(5-(piperazin-1-yl)pyridin-2-ylamino)quinolin-3-yl)(cyclopropyl)methanone hydrochloride]	0.0044 µM	1.8 µM	1.3 µM	4.2 µM	1.7 µM						
COc1cc(-c2ccc3ncc(C(=O)C4CC4)c(Nc4cccc(CN(C)C)c4)c3c2)cc(Cl)c1O [Example 622, (6-(3-chloro-4-hydroxy-5-methoxyphenyl)-4-(3-((dimethylamino)methyl)phenylamino)quinolin-3-yl)(cyclopropyl)methanone]	0.0037 µM	1.1 µM	0.43 µM	5.5 µM	0.32 µM						
COc1cc(-c2cc3c(Nc4ccc(N5CCNCC5)nc4)c(C(=O)C4CC4)cnc3cc2F)cc(Cl)c1O [Example 578, (6-(3-chloro-4-hydroxy-5-methoxyphenyl)-7-fluoro-4-(6-(piperazin-1-yl)pyridin-3-ylamino)quinolin-3-yl)(cyclopropyl)methanone]	0.021 µM	3 µM	1.9 µM	8 µM	2.8 µM						
NC1CCN(c2ccc(Nc3c(C(=O)C4CC4)cnc4ccc(-c5cc(F)c(O)c(Cl)c5)cc34)cn2)C1 (stereo not shown) [Example 577, (4-(6-(3-aminopyrrolidin-1-yl)pyridin-3-ylamino)-6-(3-chloro-5-fluoro-4-hydroxyphenyl)quinolin-3-yl)(cyclopropyl)methanone hydrochloride]							0.0037 µM	0.0065 µM	0.029 µM	0.52 µM	0.014 µM
NC1CCN(c2ccc(Nc3c(C(=O)C4CC4)cnc4ccc(-c5cc(Cl)c(O)c(Cl)c5)cc34)cn2)C1 (stereo not shown) [Example 575, (4-(6-(3-aminopyrrolidin-1-yl)pyridin-3-ylamino)-6-(3,5-dichloro-4-hydroxyphenyl)quinolin-3-yl)(cyclopropyl)methanone]	0.0031 µM	0.028 µM	0.068 µM	1.2 µM	0.029 µM						
O=C(c1cnc2ccc(-c3cc(Cl)c(O)c(Cl)c3)cc2c1Nc1ccc(NC2CCCNC2)nc1)C1CC1 (stereo not shown) [Example 610, cyclopropyl(6-(3,5-dichloro-4-hydroxyphenyl)-4-(6-(piperidin-3-ylamino)pyridine-3-ylamino)quinolin-3-yl)methanone]	0.0017 µM	0.22 µM	0.39 µM	10 µM	0.073 µM						
COc1cc(-c2ccc3ncc(C(=O)C4CC4)c(Nc4cnc(N5CCC(N)C5)nc4)c3c2)cc(Cl)c1O (stereo not shown) [Example 582, (4-(2-(3-aminopyrrolidin-1-yl)pyrimidin-5-ylamino)-6-(3-chloro-4-hydroxy-5-methoxyphenyl)quinolin-3-yl)(cyclopropyl)methanone]	0.0031 µM	0.052 µM	0.097 µM	1.1 µM	0.064 µM						
CCCC(=O)c1cnc2ccc(-c3cc(Cl)c(O)c(OC)c3)cc2c1Nc1ccc(CN(C)C)cc1 [Example 538, 1-(6-(3-chloro-4-hydroxy-5-methoxyphenyl)-4-(4-((dimethylamino)methyl)phenylamino)quinolin-3-yl)butan-1-one]	0.02 µM	0.28 µM	0.45 µM	3.1 µM	0.27 µM						
CCCC(=O)c1cnc2ccc(-c3cc(F)c(O)c(Cl)c3)cc2c1N[C@H]1CC[C@H](CN(C)C)CC1 [Example 597, 1-{6-(3-Chloro-5-fluoro-4-hydroxyphenyl)-4-[trans-4-((dimethylamino)methyl)cyclohexylamino]quinolin-3-yl}butan-1-one]	0.0073 µM	0.11 µM	0.16 µM	1.1 µM	0.083 µM						
CN[C@H]1CC[C@H](Nc2c(C(=O)C3CC3)cnc3ccc(-c4cnc(C#N)nc4)cc23)CC1 [Example 522]	0.0014 µM	0.23 µM	0.95 µM	1.1 µM	0.91 µM						
NC1CCN(c2ccc(Nc3c(C(=O)C4CC4)cnc4ccc(-c5cc(F)c(O)c(Cl)c5)cc34)cn2)C1 (stereo not shown) [Example 576, (4-(6-(3-aminopyrrolidin-1-yl)pyridin-3-ylamino)-6-(3-chloro-5-fluoro-4-hydroxyphenyl)quinolin-3-yl)(cyclopropyl)methanone]	0.0019 µM	0.0094 µM	0.026 µM	0.53 µM	0.012 µM						
O=C(c1cnc2ccc(-c3cc(Cl)c(O)c(Cl)c3)cc2c1N[C@H]1C[C@H]2CC[C@@H](C1)N2)C1CC1 [Example 580, (4-((1R,3r,5S)-8-azabicyclo[3.2.1]octan-3-ylamino)-6-(3,5-dichloro-4-hydroxyphenyl)quinolin-3-yl)(cyclopropyl)methanone]	0.0045 µM	0.25 µM	0.69 µM	4.1 µM	0.12 µM						
COc1cc(-c2ccc3ncc(C(=O)C4CC4)c(Nc4ccc(C(C)(C)N)cc4)c3c2)cc(Cl)c1O [Example 603, (4-(4-(2-aminopropan-2-yl)phenylamino)-6-(3-chloro-4-hydroxy-5-methoxyphenyl)quinolin-3-yl)(cyclopropyl)methanone]	0.0036 µM	0.52 µM	0.64 µM	1.7 µM	0.37 µM						
COc1cc(-c2ccc3ncc(C(=O)C4CC4)c(Nc4ccc(N5CCC(N)CC5)nc4)c3c2)cc(Cl)c1O [Example 550, (4-(6-(4-aminopiperidin-1-yl)pyridin-3-ylamino)-6-(3-chloro-4-hydroxy-5-methoxyphenyl)quinolin-3-yl)(cyclopropyl)methanone]	0.0057 µM	0.1 µM	0.58 µM	2.7 µM	1 µM						
